Data taken from patent US11807835B2, “Detergent compositions containing a stabilized enzyme by phosphonates” (ECOLAB USA INC., priority 2016, dated 2023).

How the values were obtained:
lipase = experiment: Lipase activity retention in detergent use solution (4000 ppm, 5 GPG water; p-nitrophenyl valerate, TRIS buffer pH 8.0); format: biochemical; settings: base formula, phosphonate at 0.1% elemental phosphorus, at 120º F. or at room temperature (as titled)
Experimental: The enzyme […] collected up to 4 hours, after a use solution was generated from the detergent composition. During the tests, the samples at different time points were collected and immediately frozen in an acetone/dry ice bath and stored in −80° C. before the activity of the enzyme was evaluated. For the use of such an assay, t=0 min was the reference point for 100% enzyme activity.
(§1) Assays of enzyme activity in formulations (% retention) were conducted to simulate a presoak condition in a beaker using the chemistry, temperature, and pH conditions relevant to manual warewash or presoak applications. Enzyme activity is an indicator of the stability of the enzyme in the detergent, specifically in an aqueous use solution within a sump (which is under conditions of high pH, temperature and dilution).
(§2) Enzyme activity under presoak or manual warewash conditions was traced quantitatively using a standard protease assay. Samples were prepared under bench top conditions, whereby the use solution from a detergent composition or detergent was obtained and maintained at a presoak or manual warewash temperature in a stirring water bath. After the time course for assessing enzyme stability is initiated, aliquots were taken at various time points and flash-frozen. A time=0 sample was prepared for each series by dissolving the detergent formulation at room temperature, mixing thoroughly, and flash freezing. Samples were thawed and diluted as necessary in an assay buffer usually for use in the protease assay. A glycine buffer at pH 9.0 is used here. The assay monitored the direct reaction of the protease on a small, commercially available peptidyl substrate, with liberation of the product providing correlation to the active enzyme content. The product was detected using a plate reader with an appreciable dynamic range (upper absorbance limit of the instrument >3.5). Enzyme activity levels were assessed relative to a calibration curve with average values for replicate tests used to map protease stability under presoak or manual warewash use conditions. Enzyme retention at each time point was calculated as the % enzyme activity relative to the time=0 sample.
(§3) The analysis by lipase and amylase assay was conducted similarly, except with a different substrate and buffers. For lipase activity, the substrate is p-nitrophenyl valerate, and for amylase, the substrate is an ethylidene substrate (EPS). The buffer used in lipase assay is TRIS (Tris(hydroxymethyl)aminomethane) buffer at pH 8.0, and in amylase assay HEPES (4-(2-hydroxyethyl)-1-piperazineethanesulfonic acid) buffer at pH 8.0.

amylase = experiment: Amylase activity retention in detergent use solution (4000 ppm, 5 GPG water; ethylidene substrate EPS, HEPES buffer pH 8.0); format: biochemical
Experimental: The enzyme activities in the detergents with different phosphonate levels were tested at 4000 ppm in 5 grains per gallon (GPG) water at 120° F. with various time points collected up to 4 hours, after a use solution was generated from the detergent composition. During the tests, the samples at different time points were collected and immediately frozen in an acetone/dry ice bath and stored in −80° C. before the activity of the enzyme was evaluated. For the use of such an assay, t=0 min was the reference point for 100% enzyme activity.
as §1, §2, §3

For `CC(O)(P(=O)(O)O)P(=O)(O)O` [HEDP, 1-hydroxy ethylidene-1,1-diphosphonic acid], the “Relative Lipase Enzyme Activity” value (lipase; time 40 min) was 25.69%, the “Relative Lipase Enzyme Activity” value (lipase; time 60 min) was 19.99% and the “Relative Lipase Enzyme Activity” value (lipase; time 90 min) was 16.10%. The “Relative Lipase Enzyme Activity” value (lipase; time 120 min) was 13.04%, the “Relative Lipase Enzyme Activity” value (lipase; time 150 min) was 11.14% and the “Relative Lipase Enzyme Activity” value (lipase; time 180 min) was 9.12%. The “Relative Lipase Enzyme Activity” value (lipase; time 210 min) was 7.99%, the “Relative Lipase Enzyme Activity” value (lipase; time 240 min) was 7.70% and the “Relative Amylase Enzyme Activity” value (amylase; All Ash formula, phosphonate 0.3 wt-%, use solution at 120° F., time 0 min) was 92.90%. For the same molecule, the “Relative Amylase Enzyme Activity” value (amylase; All Ash formula, phosphonate 0.3 wt-%, use solution at 120° F., time 5 min) was 100.00%, the “Relative Amylase Enzyme Activity” value (amylase; All Ash formula, phosphonate 0.3 wt-%, use solution at 120° F., time 10 min) was 97.04% and the “Relative Amylase Enzyme Activity” value (amylase; All Ash formula, phosphonate 0.3 wt-%, use solution at 120° F., time 20 min) was 87.85%. The “Relative Amylase Enzyme Activity” value (amylase; All Ash formula, phosphonate 0.3 wt-%, use solution at 120° F., time 40 min) was 70.85%, the “Relative Amylase Enzyme Activity” value (amylase; All Ash formula, phosphonate 0.3 wt-%, use solution at 120° F., time 60 min) was 55.60% and the “Relative Amylase Enzyme Activity” value (amylase; All Ash formula, phosphonate 0.3 wt-%, use solution at 120° F., time 90 min) was 63.30%. For the same molecule, the “Relative Amylase Enzyme Activity” value (amylase; All Ash formula, phosphonate 0.3 wt-%, use solution at 120° F., time 120 min) was 58.18%, the “Relative Amylase Enzyme Activity” value (amylase; All Ash formula, phosphonate 0.3 wt-%, use solution at 120° F., time 150 min) was 54.50% and the “Relative Amylase Enzyme Activity” value (amylase; All Ash formula, phosphonate 0.3 wt-%, use solution at 120° F., time 180 min) was 45.78%. The “Relative Amylase Enzyme Activity” value (amylase; All Ash formula, phosphonate 0.3 wt-%, use solution at 120° F., time 210 min) was 44.79%, the “Relative Amylase Enzyme Activity” value (amylase; All Ash formula, phosphonate 0.3 wt-%, use solution at 120° F., time 240 min) was 41.67% and the “Relative Amylase Enzyme Activity” value (amylase; base formula, phosphonate 0.3 wt-%, use solution at 120° F., time 0 min) was 100.00%. For the same molecule, the “Relative Amylase Enzyme Activity” value (amylase; base formula, phosphonate 0.3 wt-%, use solution at 120° F., time 5 min) was 81.99%, the “Relative Amylase Enzyme Activity” value (amylase; base formula, phosphonate 0.3 wt-%, use solution at 120° F., time 10 min) was 90.32% and the “Relative Amylase Enzyme Activity” value (amylase; base formula, phosphonate 0.3 wt-%, use solution at 120° F., time 20 min) was 95.23%. For the same molecule, the “Relative Amylase Enzyme Activity” value (amylase; base formula, phosphonate 0.3 wt-%, use solution at 120° F., time 40 min) was 84.92%, the “Relative Amylase Enzyme Activity” value (amylase; base formula, phosphonate 0.3 wt-%, use solution at 120° F., time 60 min) was 72.27% and the “Relative Amylase Enzyme Activity” value (amylase; base formula, phosphonate 0.3 wt-%, use solution at 120° F., time 90 min) was 79.95%. For the same molecule, the “Relative Amylase Enzyme Activity” value (amylase; base formula, phosphonate 0.3 wt-%, use solution at 120° F., time 120 min) was 84.46%, the “Relative Amylase Enzyme Activity” value (amylase; base formula, phosphonate 0.3 wt-%, use solution at 120° F., time 150 min) was 79.54% and the “Relative Amylase Enzyme Activity” value (amylase; base formula, phosphonate 0.3 wt-%, use solution at 120° F., time 180 min) was 84.18%. The “Relative Amylase Enzyme Activity” value (amylase; base formula, phosphonate 0.3 wt-%, use solution at 120° F., time 210 min) was 69.49%, the “Relative Amylase Enzyme Activity” value (amylase; base formula, phosphonate 0.3 wt-%, use solution at 120° F., time 240 min) was 88.63% and the “Relative Amylase Enzyme Activity” value (amylase; base formula, phosphonate 0.6 wt-%, use solution at 120º F., time 0 min) was 100.00%. The “Relative Amylase Enzyme Activity” value (amylase; base formula, phosphonate 0.6 wt-%, use solution at 120º F., time 5 min) was 96.09%, the “Relative Amylase Enzyme Activity” value (amylase; base formula, phosphonate 0.6 wt-%, use solution at 120º F., time 10 min) was 99.71% and the “Relative Amylase Enzyme Activity” value (amylase; base formula, phosphonate 0.6 wt-%, use solution at 120º F., time 20 min) was 91.20%. For the same molecule, the “Relative Amylase Enzyme Activity” value (amylase; base formula, phosphonate 0.6 wt-%, use solution at 120º F., time 40 min) was 94.89%, the “Relative Amylase Enzyme Activity” value (amylase; base formula, phosphonate 0.6 wt-%, use solution at 120º F., time 60 min) was 97.28% and the “Relative Amylase Enzyme Activity” value (amylase; base formula, phosphonate 0.6 wt-%, use solution at 120º F., time 90 min) was 94.67%. The “Relative Amylase Enzyme Activity” value (amylase; base formula, phosphonate 0.6 wt-%, use solution at 120º F., time 120 min) was 88.12%, the “Relative Amylase Enzyme Activity” value (amylase; base formula, phosphonate 0.6 wt-%, use solution at 120º F., time 150 min) was 90.33% and the “Relative Amylase Enzyme Activity” value (amylase; base formula, phosphonate 0.6 wt-%, use solution at 120º F., time 180 min) was 86.96%. For the same molecule, the “Relative Amylase Enzyme Activity” value (amylase; base formula, phosphonate 0.6 wt-%, use solution at 120º F., time 210 min) was 96.92%, the “Relative Amylase Enzyme Activity” value (amylase; base formula, phosphonate 0.6 wt-%, use solution at 120º F., time 240 min) was 92.50% and the “Relative Amylase Enzyme Activity” value (amylase; base formula, phosphonate at 0.1% elemental phosphorus level, use solution at 120º F., time 5 min) was 100.00%. For the same molecule, the “Relative Amylase Enzyme Activity” value (amylase; base formula, phosphonate at 0.1% elemental phosphorus level, use solution at 120º F., time 10 min) was 97.58%, the “Relative Amylase Enzyme Activity” value (amylase; base formula, phosphonate at 0.1% elemental phosphorus level, use solution at 120º F., time 20 min) was 90.30% and the “Relative Amylase Enzyme Activity” value (amylase; base formula, phosphonate at 0.1% elemental phosphorus level, use solution at 120º F., time 40 min) was 81.48%. The “Relative Amylase Enzyme Activity” value (amylase; base formula, phosphonate at 0.1% elemental phosphorus level, use solution at 120º F., time 60 min) was 83.84%, the “Relative Amylase Enzyme Activity” value (amylase; base formula, phosphonate at 0.1% elemental phosphorus level, use solution at 120º F., time 90 min) was 85.26% and the “Relative Amylase Enzyme Activity” value (amylase; base formula, phosphonate at 0.1% elemental phosphorus level, use solution at 120º F., time 120 min) was 82.59%. For the same molecule, the “Relative Amylase Enzyme Activity” value (amylase; base formula, phosphonate at 0.1% elemental phosphorus level, use solution at 120º F., time 180 min) was 75.47%, the “Relative Amylase Enzyme Activity” value (amylase; base formula, phosphonate at 0.1% elemental phosphorus level, use solution at 120º F., time 210 min) was 85.77% and the “Relative Amylase Enzyme Activity” value (amylase; base formula, phosphonate at 0.1% elemental phosphorus level, use solution at 120º F., time 240 min) was 81.23%.
